Data published in paper PMC3328629 (2012).
Each block holds one molecule with its values, some of them ahead of it.

Tests used:
[1] = target: T1, S-adenosyl-L-homocysteine hydrolase (HsSAHH) (Homo sapiens, UniProt P23526)
T1 sequence (P23526 2-432): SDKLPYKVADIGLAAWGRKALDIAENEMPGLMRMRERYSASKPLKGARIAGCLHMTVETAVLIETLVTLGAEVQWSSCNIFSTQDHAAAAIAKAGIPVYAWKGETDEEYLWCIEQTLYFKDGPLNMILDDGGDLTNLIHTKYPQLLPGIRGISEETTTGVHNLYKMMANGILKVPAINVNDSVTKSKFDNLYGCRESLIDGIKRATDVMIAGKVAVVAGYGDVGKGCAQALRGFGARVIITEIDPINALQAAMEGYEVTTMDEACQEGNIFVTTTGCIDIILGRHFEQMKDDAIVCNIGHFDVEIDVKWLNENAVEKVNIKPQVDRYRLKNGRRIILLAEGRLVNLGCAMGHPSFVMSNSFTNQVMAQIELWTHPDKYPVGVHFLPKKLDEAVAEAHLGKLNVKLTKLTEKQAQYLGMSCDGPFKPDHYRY

[2] = target: T1, S-adenosyl-L-homocysteine hydrolase (HsSAHH); test: Michaelis-Menten kinetics; assay type: biochemical
[3] = target: T1, S-adenosyl-L-homocysteine hydrolase (HsSAHH); test: luciferase-coupled adenosine assay; assay type: biochemical
[4] = target: T1, S-adenosyl-L-homocysteine hydrolase (HsSAHH); test: biochemical

SMILES: Nc1ncnc2c1ncn2[C@@H]1C=C(CO)[C@@H](O)[C@H]1O [INH, neplanocin A]
- HPLC analysis of adenosine formation without coupling enzymes [1]: Under these conditions (cf. Supplementary Methods, Supporting Information), INH totally inhibits SAHH.

- Km [2]: 22 ± 2 µM
SMILES: Nc1ncnc2c1ncn2[C@@H]1O[C@H](CSCC[C@H](N)C(=O)O)[C@@H](O)[C@H]1O [SAH, S-adenosyl-L-homocysteine]

- Ki [3]: 2170 ± 80 nM
SMILES: NC[C@H]1O[C@@H](n2cnc3c(N)ncnc32)[C@H](O)[C@@H]1O [INH-1, 5′-deoxy-5′-amino-β-D-adenosine]

- Ki [4]: 11.3 ± 0.6 nM
SMILES: Nc1ncnc2c1ncn2C[C@@H](O)[C@@H](O)C(=O)O [D-eritadenine]
